Assays:
Assay type in all cases: biochemical
[1] = target: horse plasma butyrylcholinesterase (eqBuChE) (Equus caballus (Horse), UniProt P81908); test: Ellman's test, inhibition of horse plasma butyrylcholinesterase
Description: (§1) The spectrophotometric Ellman's test [Ellman et al.] modified for assays in 96-well plates was used to test the activity. Reagents: 5,5′-dithiobis-(2-nitrobenzoic acid) (DTNB), eqBuChE and butyrylthiocholine iodide (BTC) were purchased from Sigma-Aldrich (Steinheim, Germany). hBuChE was from Vivonics (Bedford, MA, USA). The enzymes were prepared by dissolving in demineralized water to a concentration of 0.384 U/ml. Stock solutions of test compounds were prepared by dissolving in DMSO to a concentration of 0.0034 M. They were then diluted with water to obtain the appropriate concentrations in the wells. In the first step of the test, 25 μl of test compound (or DMSO/water mixture at the appropriate ratio for blank samples) was incubated in 0.1 M phosphate buffer (200 μl, pH=8.0) with DTNB (20 μl; 0.0025M) and with the appropriate enzyme (20 μl; eqBuChE or hBuChE) at 25° C. (animal enzyme) or 36° C. (human enzyme). After a 5 minutes incubation period, 20 μl of BTC solution (0.00375 M) was added. After another 5 minutes, the changes in absorbance of the solutions were measured at 412 nm using a multifunctional microplate reader (EnSpire Multimode; PerkinElmer; Waltham, MA, USA). All compounds were tested at a screening concentration of 10 μM (eqBuChE) or 1 μM (hBuChE). The percentage of enzyme inhibition was calculated from the equation 100-(S/B)×100, where S and B were the enzymatic activity in the test sample well and in the well without sample, respectively. […] All reactions were performed in triplicate. IC50 values were calculated using non-linear regression (GraphPad Prism 5 [GraphPad Software, San Diego, CA, USA 5.00]) for the percentage of enzyme inhibition against the inhibitor concentration used. Tacrine and donepezil were used as reference compounds.

[2] = target: human plasma butyrylcholinesterase (hBuChE) (Homo sapiens (Human), UniProt P06276); test: Ellman's test, inhibition of human plasma butyrylcholinesterase; conditions: for inhibition at 1 µM: 1 μM inhibitor concentration, read-out: hBuChE % inh
Chain of human plasma butyrylcholinesterase (hBuChE) (P06276 29-602): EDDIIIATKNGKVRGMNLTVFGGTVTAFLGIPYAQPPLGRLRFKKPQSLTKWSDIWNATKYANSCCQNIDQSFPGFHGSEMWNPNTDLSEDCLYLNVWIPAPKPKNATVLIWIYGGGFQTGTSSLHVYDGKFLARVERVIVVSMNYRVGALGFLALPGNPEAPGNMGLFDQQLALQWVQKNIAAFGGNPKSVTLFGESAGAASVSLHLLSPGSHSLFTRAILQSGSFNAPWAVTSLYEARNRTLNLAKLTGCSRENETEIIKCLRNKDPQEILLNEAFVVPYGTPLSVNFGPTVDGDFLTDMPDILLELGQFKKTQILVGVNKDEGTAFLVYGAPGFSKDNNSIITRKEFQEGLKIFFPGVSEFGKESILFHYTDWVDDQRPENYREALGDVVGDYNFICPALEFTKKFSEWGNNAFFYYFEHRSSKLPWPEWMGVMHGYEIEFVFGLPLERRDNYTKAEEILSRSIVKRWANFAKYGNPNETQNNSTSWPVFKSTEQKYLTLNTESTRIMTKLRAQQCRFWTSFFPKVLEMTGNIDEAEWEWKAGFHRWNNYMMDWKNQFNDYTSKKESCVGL
Description: as §1

[3] = target: human recombinant beta-secretase (hBACE1) (Homo sapiens (Human), UniProt P56817); test: FRET assay, inhibition of human recombinant beta-secretase; conditions: for IC50: read-out: hBACE-1 IC50; for inhibition at 50 µM: 50 μM inhibitor concentration, read-out: hBACE-1 % inh
Chain of human recombinant beta-secretase (hBACE1) (P56817 46-501): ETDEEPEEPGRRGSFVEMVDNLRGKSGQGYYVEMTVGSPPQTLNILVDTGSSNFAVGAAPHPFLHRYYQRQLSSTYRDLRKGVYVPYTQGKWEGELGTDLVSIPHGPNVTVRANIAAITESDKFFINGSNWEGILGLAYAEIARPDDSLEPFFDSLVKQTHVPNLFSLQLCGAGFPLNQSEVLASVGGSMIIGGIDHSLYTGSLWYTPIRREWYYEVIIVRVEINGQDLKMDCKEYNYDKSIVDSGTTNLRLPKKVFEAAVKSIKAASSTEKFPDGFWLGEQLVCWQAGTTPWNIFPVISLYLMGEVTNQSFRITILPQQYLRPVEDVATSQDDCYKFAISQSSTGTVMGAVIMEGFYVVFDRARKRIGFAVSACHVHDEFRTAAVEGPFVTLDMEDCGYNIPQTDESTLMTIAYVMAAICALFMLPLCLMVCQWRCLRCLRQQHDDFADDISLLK
Description: The FRET assay [Vassar, et al.] was used to test activity using 384-well black plates and a microplate reader (EnSpire Multimode; PerkinElmer; Waltham, MA, USA). The test was purchased from Life Technologies Polska Sp. z o.o. (Warsaw, Poland). […] Stock solutions of test compounds were prepared in DMSO and then further diluted with assay buffer (50 mM sodium acetate; pH 4.5) to the appropriate concentrations in the wells. In the first step of the test, 10 μl of the substrate (Rh-[…] quencher, based on the so-called Swedish APP mutation) was mixed with 10 μl of the test compound (or assay buffer; for blank sample). The enzyme reaction was initiated by adding 10 μl of enzyme (hBACE1, 1 U/ml). The reaction mixture was incubated at 25° C. for 60 minutes, then 10 μL of Stop solution (2.5 M sodium acetate) was added. After stopping the reaction, fluorescence was measured at 576 nm. The percentage of enzyme inhibition was calculated from the formula [1−(S60−S0)/(C60−C0)]×100, where S0 and S60 are the fluorescence of the test sample (containing the enzyme, substrate and test compound) at the start of the reaction and after 60 minutes, respectively, whereas C0 and C60 were analogous fluorescence intensities in the blank samples (containing enzyme, substrate and buffer). All test compounds were tested at a concentration of 50 μM in triplicate. […] A BACE1 IV inhibitor (Calbiochem, Merck; Nottingham, UK) [Stachel et al.] was used as a reference compound. […] IC50 values for all test compounds were calculated using non-linear regression (GraphPad Prism 5 [GraphPad Software, San Diego, CA, USA 5.00]) for the percentage of enzyme inhibition against the inhibitor concentration used.

[4] = target: Recombinant human Aβ1-42 peptide (Homo sapiens (Human), UniProt P05067); test: Thioflavin T test, antiaggregation activity against beta-amyloid; conditions: 10 μM test compound, 1.5 μM Aβ1-42; read-out: inh. Aβ aggr. % inh
Chain of Recombinant human Aβ1-42 peptide (P05067 672-713): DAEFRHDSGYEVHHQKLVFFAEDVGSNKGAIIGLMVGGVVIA
Description: The thioflavin T test [Levine III] was used for the determinations. Recombinant human Aβ1-42 peptide (HFIP pretreated, Merck Millipore, Darmstadt, Germany) was dissolved in DMSO to form a 75 μM stock solution. The solution was further diluted in HEPES buffer (150 mM HEPES, pH 7.4, 150 mM NaCl) to a concentration of 7.5 μM. Then, the Aβ1-42 solution was added to the test compounds (black 96-well plates were used) and diluted with thioflavin T solution (10 μM final concentration). The final mixture contained 1.5 μM Aβ1-42, 10 μM test compound, and 3% of DMSO. Fluorescence was measured every 300 s (excitation wavelength was 440 nm, emission wavelength was 490 nm) with continuous mixing between measurements. A multifunction microplate reader (Synergy H4; BioTek Instruments, Inc., Winooski, VT, USA) was used to measure the fluorescence. Fluorescence started increasing after approximately 4 hours, plateaued after 20 hours and remained virtually unchanged for the next 28 hours of incubation. The plateau-phase fluorescence intensities (in the presence and absence of test compounds) were averaged and the mean fluorescence values for the respective wells at t=0 h were subtracted from them. […] IC50 values were calculated using non-linear regression (GraphPad Prism 5 [GraphPad Software, San Diego, CA, USA 5.00]) for the percentage of aggregation inhibition against the inhibitor concentration used.

Chain of horse plasma butyrylcholinesterase (eqBuChE) (P81908 whole entry): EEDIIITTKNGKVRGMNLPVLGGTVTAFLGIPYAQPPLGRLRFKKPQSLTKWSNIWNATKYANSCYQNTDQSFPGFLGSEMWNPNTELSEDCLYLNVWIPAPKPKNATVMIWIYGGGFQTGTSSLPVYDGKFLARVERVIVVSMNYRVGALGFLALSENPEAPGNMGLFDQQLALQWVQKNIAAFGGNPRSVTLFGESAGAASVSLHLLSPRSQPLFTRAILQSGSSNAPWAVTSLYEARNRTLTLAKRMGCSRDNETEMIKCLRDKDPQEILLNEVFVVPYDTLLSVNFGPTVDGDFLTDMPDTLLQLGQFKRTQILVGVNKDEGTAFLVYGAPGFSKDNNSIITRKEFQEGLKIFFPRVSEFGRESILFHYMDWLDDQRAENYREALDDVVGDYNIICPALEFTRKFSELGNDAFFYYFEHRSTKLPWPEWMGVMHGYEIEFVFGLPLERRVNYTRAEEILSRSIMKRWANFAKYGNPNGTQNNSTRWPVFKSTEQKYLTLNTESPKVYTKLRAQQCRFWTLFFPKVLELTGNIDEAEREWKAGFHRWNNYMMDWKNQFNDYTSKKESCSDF

Compound	IC50 [1] [µM]	inhibition at 1 µM [2] [%]	IC50 [3] [µM]	inhibition at 10 µM [4] [%]	IC50 [2] [µM]	inhibition at 50 µM [3] [%]
O=C(CC1c2ccccc2-c2ccccc21)N[C@@H](Cc1ccccc1)[C@H](O)CNCc1cccc(C(F)(F)F)c1 [Compound 21, 2-(9H-fluoren-9-yl)-N-((2S,3R)-3-hydroxy-1-phenyl-4-((3-(trifluoromethyl)benzyl)-amino)butan-2-yl)acetamide]	2.02	54.3	2.12	< 10	–	–
C[C@H](NC[C@@H](O)[C@H](Cc1ccccc1)NC1c2ccccc2-c2ccccc21)c1ccccc1 [Compound 9, (2R,3S)-3-((9H-fluoren-9-yl)amino)-4-phenyl-1-(((S)-1-phenylethyl)amino)butan-2-ol]	0.264	–	20.1	63	0.812	–
CC(C)(NC[C@@H](O)[C@H](Cc1ccccc1)NC1c2ccccc2-c2ccccc21)c1ccccc1 [Compound 10, (2R,3S)-3-((9H-fluoren-9-yl)amino)-4-phenyl-1-((2-phenylpropan-2-yl)amino)butan-2-ol]	0.345	–	17.2	90.8	1.17	–
CC(C)(C)c1ccc(CNC[C@H](O)[C@H](Cc2ccccc2)NC2c3ccccc3-c3ccccc32)cc1 [Compound 5, (2S,3S)-3-((9H-fluoren-9-yl)amino)-1-((4-(tert-butyl)benzyl)amino)-4-phenylbutan-2-ol]	0.803	62	6.64	75.6	–	–
O[C@H](CNCc1cccc(C(F)(F)F)c1)[C@H](Cc1ccccc1)NC1c2ccccc2-c2ccccc21 [Compound 8, (2R,3S)-3-((9H-fluoren-9-yl)amino)-4-phenyl-1-((3-(trifluoromethyl)benzyl)amino)-butan-2-ol]	0.751	–	3.19	72.4	0.721	–
CC(C)(C)NC[C@H](O)[C@H](Cc1ccccc1)NC1c2ccccc2-c2ccccc21 [Compound 12, (2S,3S)-3-((9H-fluoren-9-yl)amino)-1-(tert-butylamino)-4-phenylbutan-2-ol]	4.84	58.8	–	67.2	–	48.7
CC(C)(C)CNC[C@@H](O)[C@H](Cc1ccccc1)NC(=O)C1c2ccccc2-c2ccccc21 [Compound 26, N-((2S,3R)-3-hydroxy-4-(neopentylamino)-1-phenylbutan-2-yl)-9H-fluorene-9-carboxamide]	1.09	61.1	–	39.5	–	54.5
O[C@@H](CNCC1CC1)[C@H](Cc1ccccc1)NC1c2ccccc2-c2ccccc21 [Compound 15, (2S,3S)-3-((9H-fluoren-9-yl)amino)-1-((cyclopropylmethyl)amino)-4-phenylbutan-2-ol]	0.975	–	–	–	1.03	–
CC(C)(C)c1ccc(CNC[C@H](O)[C@H](Cc2ccccc2)NC(=O)C2c3ccccc3-c3ccccc32)cc1 [Compound 18, N-((2S,3S)-4-((4-(tert-butyl)benzyl)amino)-3-hydroxy-1-phenylbutan-2-yl)-9H-fluorene-9-carboxamide]	1.22	55.6	1.12	63.5	–	–
CC(C)(C)CNC[C@@H](O)[C@H](Cc1ccccc1)NC1c2ccccc2-c2ccccc21 [Compound 13, (2R,3S)-3-((9H-fluoren-9-yl)amino)-1-(neopentylamino)-4-phenylbutan-2-ol]	1.18	61.3	8.59	80.2	–	–
O[C@H](CNCC(F)(F)F)[C@H](Cc1ccccc1)NC1c2ccccc2-c2ccccc21 [Compound 14, (2R,3S)-3-((9H-fluoren-9-yl)amino)-4-phenyl-1-((2,2,2-trifluoroethyl)amino)butan-2-ol]	1.08	67.9	–	82.5	–	36.8
O[C@@H](CNCc1ccccc1)[C@H](Cc1ccccc1)NC1c2ccccc2-c2ccccc21 [Compound 2, (2S,3S)-3-((9H-fluoren-9-yl)amino)-1-(benzylamino)-4-phenylbutan-2-ol]	0.333	–	4.82	86.3	0.571	–
CC(C)c1cccc(CNC[C@@H](O)[C@H](Cc2ccccc2)NC2c3ccccc3-c3ccccc32)c1 [Compound 4, (2R,3S)-3-((9H-fluoren-9-yl)amino)-1-((3-isopropylbenzyl)amino)-4-phenylbutan-2-ol]	0.514	–	3.92	83.7	0.489	–
CC(C)(NC[C@@H](O)[C@H](Cc1ccccc1)NC(=O)CC1c2ccccc2-c2ccccc21)c1ccccc1 [Compound 25, 2-(9H-fluoren-9-yl)-N-((2S,3R)-3-hydroxy-1-phenyl-4-((2-phenylpropan-2-yl)amino)-butan-2-yl)acetamide]	1.27	71.7	4.96	63	–	–
CC(C)(NC[C@@H](O)[C@H](Cc1ccccc1)NC(=O)C1c2ccccc2-c2ccccc21)c1ccccc1 [Compound 24, N-((2S,3R)-3-hydroxy-1-phenyl-4-((2-phenylpropan-2-yl)amino)butan-2-yl)-9H-fluorene-9-carboxamide]	2.84	21.4	5.15	61	–	–

Reference: US12492163B2, “9H-fluorene derivatives or their pharmaceutically acceptable salts” (priority 2020, dated 2025)
